As usually defined, the EC50 is the concentration needed to bring the measured effect to its halfway point.

The record followed here is patent US20190307776A1, “AZA-S[…] HUMAN IMMUNODEFICIENCY VIRUS REPLICATION” (priority 2016, published 2019).

This assay has as its system recombinant NL4-3 virus. Briefly: HIV cell culture assay. The note with it: Human immunodeficiency virus 1, NL43, MT2. It counts as cell-based. The procedure, abridged:
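Antiviral activity measured in MT-2 cells infected 4–5 days with NL4-3 carrying Renilla luciferase in place of part of nef plus Gag P373S, in the presence of serial inhibitor dilutions. Read-out was luciferase activity by Dual Luciferase lysis/substrate mix.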
Consider `C=C(C)[C@@H]1CC[C@]2(CNCCCN3CCS(=O)(=O)CC3)CC[C@]3(C)[C@H](CC[C@@H]4[C@@]5(C)CCN(c6ccc(C(N)=O)cn6)C(C)(C)[C@@H]5CC[C@]43C)[C@@H]12` [Example 41, 6-((4aR,6aR,6bR,8aS,11R,11aR,11bR,13aR,13bR)-8a-(((3-(1,1-dioxidothiomorpholino)propyl)amino)methyl)-4,4,6a,6b,13b-pentamethyl-11-(prop-1-en-2-yl)hexadecahydro-1H-cyclopenta[5,6]naphtho[2,1-f]isoquinolin-3(2H,4H,13bH)-yl)nicotinamide], for which the EC50 is 400 nM. Next, `C=C(C)[C@@H]1CC[C@]2(C(=O)O)CC[C@]3(C)[C@H](CC[C@@H]4[C@@]5(C)CCN(c6ncc(C(=O)O)cn6)C(C)(C)[C@@H]5CC[C@]43C)[C@@H]12` [Example 52, (4aR,6aR,6bR,8aS,11R,11aR,11bR,13aR,13bR)-3-(5-carboxypyrimidin-2-yl)-4,4,6a,6b,13b-pentamethyl-11-(prop-1-en-2-yl)icosahydro-1H-cyclopenta[5,6]naphtho[2,1-f]isoquinoline-8a-carboxylic acid]: 62 nM; `C=C(C)[C@@H]1CC[C@]2(NCCN3CCS(=O)(=O)CC3)CC[C@]3(C)[C@H](CC[C@@H]4[C@@]5(C)CCN(c6ncc(C(=O)O)cn6)C(C)(C)[C@@H]5CC[C@]43C)[C@@H]12` [Example 53, 2-((4aR,6aR,6bR,8aS,11R,11aR,11bR,13aR,13bR)-8a-((2-(1,1-dioxidothiomorpholino)ethyl)amino)-4,4,6a,6b,13b-pentamethyl-11-(prop-1-en-2-yl)hexadecahydro-1H-cyclopenta[5,6]naphtho[2,1-f]isoquinolin-3(2H,4H,13bH)-yl)pyrimidine-5-carboxylic acid]: 1 nM; `C=C(C)[C@@H]1CC[C@]2(CO)CC[C@]3(C)[C@H](CC[C@@H]4[C@@]5(C)CCCN(C(=O)CCC(=O)O)C(C)(C)C5CC[C@]43C)[C@@H]12` (stereo partly drawn) [Example 3, 4-((7aR,7bR,9aS,12R,12aR,12bR,14aR,14bR)-9a-(hydroxymethyl)-5,5,7a,7b,14b-pentamethyl-12-(prop-1-en-2-yl)icosahydrocyclopenta[7,8]phenanthro[2,1-c]azepin-4(1H)-yl)-4-oxobutanoic acid]: greater than 8000 nM.

On to `C=C(C)[C@@H]1CC[C@]2(CNCCCN3CCS(=O)(=O)CC3)CC[C@]3(C)[C@H](CC[C@@H]4[C@@]5(C)CCN(C(=O)C(=O)NC(C)(C)C(=O)O)C(C)(C)[C@@H]5CC[C@]43C)[C@@H]12` [Example 38, 2-(2-((4aR,6aR,6bR,8aS,11R,11aR,11bR,13aR,13bR)-8a-(((3-(1,1-dioxidothiomorpholino)propyl)amino)methyl)-4,4,6a,6b,13b-pentamethyl-11-(prop-1-en-2-yl)hexadecahydro-1H-cyclopenta[5,6]naphtho[2,1-f]isoquinolin-3(2H,4H,13bH)-yl)-2-oxoacetamido)-2-methylpropanoic acid], for which the EC50 was greater than 3000 nM.

Regarding `C=C(C)[C@@H]1CC[C@]2(CO)CC[C@]3(C)[C@H](CC[C@@H]4[C@@]5(C)CCN(S(=O)(=O)c6cccc(C(=O)O)c6)C(C)(C)C5CC[C@]43C)[C@@H]12` (stereo partly drawn) [Example 17, 3-(((6aR,6bR,8aS,11R,11aR,11bR,13aR,13bR)-8a-(hydroxymethyl)-4,4,6a,6b,13b-pentamethyl-11-(prop-1-en-2-yl)icosahydro-3H-cyclopenta[5,6]naphtho[2,1-f]isoquinolin-3-yl)sulfonyl)benzoic acid], the EC50 amounted to 4940 nM. Next, `C=C(C)[C@@H]1CC[C@]2(CO)CC[C@]3(C)[C@H](CC[C@@H]4[C@@]5(C)CCCN(C(=O)CCCCC(=O)O)C(C)(C)C5CC[C@]43C)[C@@H]12` (stereo partly drawn) [Example 4, 6-((7aR,7bR,9aS,12R,12aR,12bR,14aR,14bR)-9a-(hydroxymethyl)-5,5,7a,7b,14b-pentamethyl-12-(prop-1-en-2-yl)icosahydrocyclopenta[7,8]phenanthro[2,1-c]azepin-4(1H)-yl)-6-oxohexanoic acid]: greater than 8000 nM. `C=C(C)[C@@H]1CC[C@]2(CNCCCN3CCS(=O)(=O)CC3)CC[C@]3(C)[C@H](CC[C@@H]4[C@@]5(C)CCN(c6ncc(C(=O)O)s6)C(C)(C)[C@@H]5CC[C@]43C)[C@@H]12` [Example 56, 2-((4aR,6aR,6bR,8aS,11R,11aR,11bR,13aR,13bR)-8a-(((3-(1,1-dioxidothiomorpholino)propyl)amino)methyl)-4,4,6a,6b,13b-pentamethyl-11-(prop-1-en-2-yl)hexadecahydro-1H-cyclopenta[5,6]naphtho[2,1-f]isoquinolin-3(2H,4H,13bH)-yl)thiazole-5-carboxylic acid]: the EC50 is 4 nM.

With `C=C(C)[C@@H]1CC[C@]2(CNCCCN3CCS(=O)(=O)CC3)CC[C@]3(C)[C@H](CC[C@@H]4[C@@]5(C)CCN(C(=O)c6ccc(C(=O)O)cc6)C(C)(C)[C@@H]5CC[C@]43C)[C@@H]12` [Example 30, 4-((4aR,6aR,6bR,8aS,11R,11aR,11bR,13aR,13bR)-8a-(((3-(1,1-dioxidothiomorpholino)propyl)amino)methyl)-4,4,6a,6b,13b-pentamethyl-11-(prop-1-en-2-yl)icosahydro-1H-cyclopenta[5,6]naphtho[2,1-f]isoquinoline-3-carbonyl)benzoic acid], the EC50 came out at 110 nM. Next, `C=C(C)[C@@H]1CC[C@]2(C(=O)O)CC[C@]3(C)[C@H](CC[C@@H]4[C@@]5(C)CC(=O)N(c6ccc(C(=O)O)cc6)C(C)(C)[C@@H]5CC[C@]43C)[C@@H]12` [Example 22, (4aR,6aR,6bR,8aS,11R,11aR,11bR,13aR,13bR)-3-(4-carboxyphenyl)-4,4,6a,6b,13b-pentamethyl-2-oxo-11-(prop-1-en-2-yl)icosahydro-8aH-cyclopenta[5,6]naphtho[2,1-f]isoquinoline-8a-carboxylic acid]: greater than 3000 nM; `C=C(C)[C@@H]1CC[C@]2(CO)CC[C@]3(C)[C@H](CC[C@@H]4[C@@]5(C)CCN(S(=O)(=O)c6ccsc6C(=O)O)C(C)(C)C5CC[C@]43C)[C@@H]12` (stereo partly drawn) [Example 21, 3-(((6aR,6bR,8aS,11R,11aR,11bR,13aR,13bR)-8a-(hydroxymethyl)-4,4,6a,6b,13b-pentamethyl-11-(prop-1-en-2-yl)icosahydro-3H-cyclopenta[5,6]naphtho[2,1-f]isoquinolin-3-yl)sulfonyl)thiophene-2-carboxylic acid]: greater than 8000 nM; `C=C(C)[C@@H]1CC[C@]2(CNCCCN3CCS(=O)(=O)CC3)CC[C@]3(C)[C@H](CC[C@@H]4[C@@]5(C)CCN(c6ccc(C(=O)O)cc6)C(C)(C)[C@@H]5CC[C@]43C)[C@@H]12` [Example 48, 4-((4aR,6aR,6bR,8aS,11R,11aR,11bR,13aR,13bR)-8a-(((3-(1,1-dioxidothiomorpholino)propyl)amino)methyl)-4,4,6a,6b,13b-pentamethyl-11-(prop-1-en-2-yl)hexadecahydro-1H-cyclopenta[5,6]naphtho[2,1-f]isoquinolin-3(2H,4H,13bH)-yl)benzoic acid]: 5 nM. Next, `C=C(C)[C@@H]1CC[C@]2(CO)CC[C@]3(C)[C@H](CC[C@@H]4[C@@]5(C)CCCN(S(=O)(=O)c6ccc(C(=O)O)o6)C(C)(C)C5CC[C@]43C)[C@@H]12` (stereo partly drawn) [Example 11, 5-(((7aR,7bR,9aS,12R,12aR,12bR,14aR,14bR)-9a-(hydroxymethyl)-5,5,7a,7b,14b-pentamethyl-12-(prop-1-en-2-yl)icosahydrocyclopenta[7,8]phenanthro[2,1-c]azepin-4(1H)-yl)sulfonyl)furan-2-carboxylic acid]: greater than 8000 nM; `C=C(C)[C@@H]1CC[C@]2(CNCCCN3CCS(=O)(=O)CC3)CC[C@]3(C)[C@H](CC[C@@H]4[C@@]5(C)CCN(CC(=O)O)C(C)(C)[C@@H]5CC[C@]43C)[C@@H]12` [Example 33, 2-((4aR,6aR,6bR,8aS,11R,11aR,11bR,13aR,13bR)-8a-(((3-(1,1-dioxidothiomorpholino)propyl)amino)methyl)-4,4,6a,6b,13b-pentamethyl-11-(prop-1-en-2-yl)hexadecahydro-1H-cyclopenta[5,6]naphtho[2,1-f]isoquinolin-3(2H,4H,13bH)-yl)acetic acid]: greater than 3000 nM.
